Data as given in patent publication US12331068B2, “Compositions and methods for inhibiting CD73” (Peloton Therapeutics, Inc., priority 2018, dated 2025).
Where two headings read alike, the source gives them in different places.

Key:
Human CD73 = target: T1, Human CD73 (Homo sapiens, UniProt P21589); assay: CD73 Enzyme Assay (EnzChek PNP/MESG kinetic readout of AMP hydrolysis); assay type: biochemical
T1 construct: purchased R&D Systems; host or cells: CHO cells
T1 sequence (P21589 27-549): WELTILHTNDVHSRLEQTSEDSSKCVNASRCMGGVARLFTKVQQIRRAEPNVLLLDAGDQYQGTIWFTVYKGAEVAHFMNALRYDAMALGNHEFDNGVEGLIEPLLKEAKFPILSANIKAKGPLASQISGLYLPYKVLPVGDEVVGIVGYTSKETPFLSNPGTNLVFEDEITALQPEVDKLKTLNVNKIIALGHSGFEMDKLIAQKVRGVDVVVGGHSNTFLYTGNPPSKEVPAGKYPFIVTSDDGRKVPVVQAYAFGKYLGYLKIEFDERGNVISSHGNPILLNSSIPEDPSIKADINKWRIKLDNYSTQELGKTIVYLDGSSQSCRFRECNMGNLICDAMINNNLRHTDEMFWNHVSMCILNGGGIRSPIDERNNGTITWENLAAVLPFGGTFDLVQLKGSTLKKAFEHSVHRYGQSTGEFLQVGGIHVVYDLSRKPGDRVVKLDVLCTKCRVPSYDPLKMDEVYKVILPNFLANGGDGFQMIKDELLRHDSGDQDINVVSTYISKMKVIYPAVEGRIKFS
How it was run: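 Compounds tested as 15-point, 3-fold dilution series (300 μM to 0.0002 μM) in DMSO. Kinetic absorbance at 360 nm read every minute for 10–20 min, initial velocity taken from the linear portion.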

[1] = target: T2, CD73 on U138 human neuroglioma cells (Homo sapiens, UniProt P21589); assay: CD73 Cell-Based Assay (inorganic phosphate from AMP, malachite green); details: AMP substrate, 2 hours at 37° C.
T2 construct: U138 cells were obtained from ATCC and cultured in DMEM with 10% FBS; host or cells: U138 human neuroglioma cells
T2 sequence (P21589 27-549): T1 sequence (P21589 27-549)
How it was run: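 U138 cells, seeded the day before at 2500 per well, were washed and given AMP substrate (200 μM in the added mixture, before dilution into the buffer) together with compound. After 2 h at 37 °C in 5% CO2, inorganic phosphate in the supernatant was measured with malachite green.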

[2] = 0.25 nM hCD73, 25 μM AMP, read-out: CD73 Enzyme Assay IC50
[3] = read-out: CD73 Cell-Based assay IC50

Row | SMILES | IC50 (Human CD73; [2]) [µM] | IC50 [1, 3] [µM] | IC50 (Human CD73) [µM] | IC50 ([1]; read-out: IC50) [µM]
1 | C[C@@H](Nc1c(C#N)c(Cl)nc2c1ncn2[C@@H]1O[C@H](COP(=O)(O)CP(=O)(O)O)[C@@H](O)[C@H]1O)c1ccccc1F [Compound 208, (((((2R,3S,4R,5R)-5-(5-chloro-6-cyano-7-(((R)-1-(2-fluorophenyl)ethyl)amino)-3H-imidazo[4,5-b]pyridin-3-yl)-3,4-dihydroxytetrahydrofuran-2-yl)methoxy)(hydroxy)phosphoryl)methyl)phosphonic acid] | < 0.01 | < 0.01 | – | –
2 | N#Cc1c(Cl)nc2c(ncn2[C@@H]2O[C@H](COP(=O)(O)CP(=O)(O)O)[C@@H](O)[C@H]2O)c1NC1CCCC1 [Compound 209] | < 0.01 | < 0.01 | – | –
3 | N#Cc1nc2c(ccn2[C@@H]2O[C@H](CS(=O)(=O)CP(=O)(O)O)[C@@H](O)[C@H]2O)c(NC2CCCC2)c1Cl [Compound 210] | < 0.01 | < 0.01 | – | –
4 | N#Cc1nc2c(ccn2[C@@H]2O[C@H](COP(=O)(O)CP(=O)(O)O)[C@@H](O)[C@H]2O)c(NC2CCCC2)c1Cl [Compound 211] | < 0.01 | < 0.01 | – | –
5 | C[C@H](Nc1c(C#N)c(Cl)nc2c1ccn2[C@@H]1O[C@H](COP(=O)(O)CP(=O)(O)O)[C@@H](O)[C@H]1O)c1ccc(F)cn1 [Compound 212] | < 0.01 | < 0.01 | – | –
6 | C[C@@H](Nc1c(C#N)c(Cl)nc2c1ccn2[C@@H]1O[C@H](COP(=O)(O)CP(=O)(O)O)[C@@H](O)[C@H]1O)c1ccc(C#N)cc1 [Compound 213] | < 0.01 | < 0.01 | – | –
7 | C[C@@H](Nc1c(C#N)c(Cl)nc2c1ncn2[C@@H]1O[C@H](COP(=O)(O)CP(=O)(O)O)[C@@H](O)[C@H]1O)c1ccc(F)cc1 [Compound 214] | – | < 0.01 | < 0.01 | –
8 | C[C@H](Nc1c(C#N)c(Cl)nc2c1ncn2[C@@H]1O[C@H](COP(=O)(O)CP(=O)(O)O)[C@@H](O)[C@H]1O)c1ccc(F)cc1 [Compound 215, (((((2R,3S,4R,5R)-5-(5-chloro-6-cyano-7-(((S)-1-(4-fluorophenyl)ethyl)amino)-3H-imidazo[4,5-b]pyridin-3-yl)-3,4-dihydroxytetrahydrofuran-2-yl)methoxy)(hydroxy)phosphoryl)methyl)phosphonic acid] | – | < 0.01 | < 0.01 | –
9 | N#Cc1c(Cl)nc2c(ccn2[C@@H]2O[C@H](COP(=O)(O)CP(=O)(O)O)[C@@H](O)[C@@H]2F)c1NC1CCCC1 [Compound 216] | < 0.01 | < 0.01 | – | –
10 | N#Cc1nc2c(ccn2[C@@H]2O[C@H](CS(=O)(=O)CP(=O)(O)O)[C@@H](O)[C@H]2O)c(NC2CC3(CC3)C2)c1Cl [Compound 221] | < 0.01 | < 0.01 | – | –
11 | C[C@@H](Nc1c(C#N)c(Cl)nc2c1ccn2[C@@H]1O[C@H](COP(=O)(O)CP(=O)(O)O)[C@@H](O)[C@H]1O)c1ccc(F)cn1 [Compound 222, (((((2R,3S,4R,5R)-5-(6-chloro-5-cyano-4-(((R)-1-(5-fluoropyridin-2-yl)ethyl)amino)-1H-pyrrolo[2,3-b]pyridin-1-yl)-3,4-dihydroxytetrahydrofuran-2-yl)methoxy)(hydroxy)phosphoryl)methyl)phosphonic acid] | < 0.01 | < 0.01 | – | –
12 | C[C@H](Nc1c(C#N)c(Cl)nc2c1ccn2[C@@H]1O[C@H](COP(=O)(O)CP(=O)(O)O)[C@@H](O)[C@H]1O)c1ccc(C#N)cc1 [Compound 223] | < 0.01 | < 0.01 | – | –
13 | N#Cc1c(Cl)nc2c(ccn2[C@@H]2O[C@H](COP(=O)(O)CP(=O)(O)O)[C@@H](O)[C@H]2O)c1NC1CCOC1 (stereo partly shown) [Compound 224] | < 0.01 | < 0.01 | – | –
14 | C[C@@H](Nc1c(C#N)c(Cl)nc2c1ncn2[C@@H]1O[C@H](COP(=O)(O)CP(=O)(O)O)[C@@H](O)[C@H]1O)c1ccc(F)cn1 [Compound 225] | < 0.01 | < 0.01 | – | –
15 | C[C@@H](Nc1c(C#N)c(Cl)nc2c1ncn2[C@@H]1O[C@H](COP(=O)(O)CP(=O)(O)O)[C@@H](O)[C@H]1O)c1ccc(C#N)cc1 [Compound 226] | < 0.01 | < 0.01 | – | –
16 | C[C@H](Nc1c(C#N)c(Cl)nc2c1ncn2[C@@H]1O[C@H](COP(=O)(O)CP(=O)(O)O)[C@@H](O)[C@H]1O)c1ccc(C#N)cc1 [Compound 227] | < 0.01 | < 0.01 | – | –
17 | N#Cc1c(Cl)nc2c(ccn2[C@@H]2O[C@H](COP(=O)(O)CP(=O)(O)O)[C@@H](O)[C@@H]2F)c1NC1CC(F)(F)C1 [Compound 228] | < 0.01 | < 0.01 | – | –

Row | SMILES | IC50 (Human CD73; [2]) [µM] | IC50 [1, 3] [µM] | IC50 (Human CD73) [µM] | IC50 ([1]; read-out: IC50) [µM]
18 | C[C@@H](Nc1c(C#N)c(Cl)nc2c1ccn2[C@@H]1O[C@H](COP(=O)(O)CP(=O)(O)O)[C@@H](O)[C@@H]1F)c1ccc(F)cc1 [Compound 229] | < 0.01 | < 0.01 | – | –
19 | C[C@H](Nc1c(C#N)c(Cl)nc2c1ccn2[C@@H]1O[C@H](COP(=O)(O)CP(=O)(O)O)[C@@H](O)[C@@H]1F)c1ccc(C#N)cc1 [Compound 230] | < 0.01 | < 0.01 | – | –
20 | C[C@@H](Nc1c(C#N)c(Cl)nc2c1ccn2[C@@H]1O[C@H](COP(=O)(O)CP(=O)(O)O)[C@@H](O)[C@@H]1F)c1ccc(C#N)cc1 [Compound 239] | < 0.01 | < 0.01 | – | –
21 | C[C@H](Nc1c(C#N)c(Cl)nc2c1ncn2[C@@H]1O[C@H](COP(=O)(O)CP(=O)(O)O)[C@@H](O)[C@H]1O)c1ccc(F)cn1 [Compound 240] | < 0.01 | < 0.01 | – | –
22 | C[C@H](Nc1c(C#N)c(Cl)nc2c1ccn2[C@@H]1O[C@H](COP(=O)(O)CP(=O)(O)O)[C@@H](O)[C@@H]1F)c1ccc(F)cc1 [Compound 241] | < 0.01 | < 0.01 | – | –
23 | C[C@H](Nc1c(C#N)c(Cl)nc2c1ncn2[C@@H]1O[C@H](COP(=O)(O)CP(=O)(O)O)[C@@H](O)[C@H]1O)c1ccccc1F [Compound 242] | < 0.01 | < 0.01 | – | –
24 | C[C@H](Nc1c(C#N)c(Cl)nc2c1cnn2[C@@H]1O[C@H](COP(=O)(O)CP(=O)(O)O)[C@@H](O)[C@H]1O)c1ccc(C#N)cc1 [Compound 243] | < 0.01 | < 0.01 | – | –
25 | N#Cc1c(Cl)nc2c(cnn2[C@@H]2O[C@H](COP(=O)(O)CP(=O)(O)O)[C@@H](O)[C@H]2O)c1NC1CCCC1 [Compound 244] | < 0.01 | < 0.01 | – | –
26 | C[C@H](Nc1c(C#N)c(Cl)nc2c1ncn2[C@@H]1O[C@H](COP(=O)(O)CP(=O)(O)O)[C@@H](O)[C@@H]1F)c1ccc(F)cc1 [Compound 245] | < 0.01 | < 0.01 | – | –
27 | C[C@H](Nc1c(C#N)c(Cl)nc2c1cnn2[C@@H]1O[C@H](COP(=O)(O)CP(=O)(O)O)[C@@H](O)[C@H]1O)c1ccc(F)cc1 [Compound 247] | < 0.01 | < 0.01 | – | –
28 | C[C@@H](Nc1c(C#N)c(Cl)nc2c1cnn2[C@@H]1O[C@H](COP(=O)(O)CP(=O)(O)O)[C@@H](O)[C@H]1O)c1ccccc1F [Compound 248] | < 0.01 | < 0.01 | – | –
29 | C[C@@H](Nc1c(C#N)c(Cl)nc2c1cnn2[C@@H]1O[C@H](COP(=O)(O)CP(=O)(O)O)[C@@H](O)[C@H]1O)c1ccc(C#N)cc1 [Compound 249] | < 0.01 | < 0.01 | – | –
30 | C[C@@H](Nc1c(C#N)c(Cl)nc2c1ncn2[C@@H]1O[C@H](COP(=O)(O)CP(=O)(O)O)[C@@H](O)[C@@H]1F)c1ccc(F)cc1 [Compound 250] | < 0.01 | < 0.01 | – | –
31 | N#Cc1c(Cl)nc2c(cnn2[C@@H]2O[C@H](COP(=O)(O)CP(=O)(O)O)[C@@H](O)[C@H]2O)c1N[C@H]1C[C@@H](F)C1 [Compound 321] | < 0.01 | < 0.01 | – | –
32 | N#Cc1c(Cl)nc2c(cnn2[C@@H]2O[C@H](COP(=O)(O)CP(=O)(O)O)[C@@H](O)[C@H]2O)c1NC1CC(F)(F)C1 [Compound 322] | < 0.01 | < 0.01 | – | –
33 | O=P(O)(O)CS(=O)(=O)C[C@H]1O[C@@H](n2ccc3c(NC4CCCC4)cc(Cl)nc32)[C@H](O)[C@@H]1O [Compound 323] | < 0.01 | < 0.01 | – | 0.0014
